Reference: patent US6692745B2, “Compositions and methods for inhibition of HIV-1 infection” (priority 2000, dated 2004)

Tests used:
[1] = test system: HIV-1 envelope-mediated fusion between HeLa-EnvJR-FL and PM1 cells
Protocol: HIV-1 envelope-mediated fusion between HeLa-EnvJR-FL and PM1 cells was detected using a Resonance Energy Transfer (RET) assay.
HIV-1 inhibition data were analyzed according to the Combination Index method of Chou and Talay.
Equation (1) is a generalized form of the equations describing Michaelis-Menton enzyme kinetics, Langmuir adsorption isotherms, and Henderson-Hasselbalch ionization equilibria, for which m=1 in all cases. In the present case, K is equal to the IC50 value. K and m are determined by curve-fitting the dose-response curves.
After the best-fit parameters for K and m are obtained for the experimental agents and their combination, Equation (1) is rearranged to allow for calculation of c for a given f.
All concentrations are those required to achieve a given degree of inhibition. Equation (2) is used when the molecules are mutually nonexclusive, i.e., have different sites of action. Since this is the likely scenario for inhibitors of HIV-1 attachment and gp41 fusion intermediates, Equation (2) was used for all Combination Index calculations. Mutually nonexclusive calculations provide a more conservative estimate of the degree of synergy that mutually exclusive calculations, for which the c1mc2m/c1c2 term is dropped. CI<1 indicates synergy, CI=1 indicates purely additive effects, and CI>1 indicates antagonism. In general, CI values are most relevant at the higher levels of inhibition that are required to achieve a measurable clinical benefit.

HIV = details: Phase I/II; cited from earlier work

## enfuvirtide
[1]; 25:1 CD4-IgG2:T-20 mass ratio, calculated from known mass ratio
  concentration of the individual agent contained in the combination giving 95% inhibition: 0.044 µg/mL
[1]; 95% inhibition, 25:1 CD4-IgG2:T-20 mass ratio
  Dose Reduction (ratio of inhibitor concentration alone v. in synergistic combination): 5 fold
[1]; HeLa-EnvJR-FL and PM1 cells, RET after 4 h, mean of three independent experiments, best-fit to median effect equation, FIG. 1
  K, concentration of agent required to produce the median effect (equal to the IC50 value): 0.017 µg/mL
[1]; agent used alone, or total concentration of the 25:1 combination, calculated from fitted K and m, FIG. 3
  concentration required for inhibition of viral entry by 95%: 0.21 µg/mL
HIV
  reduction of plasma HIV RNA levels: ≤ 2 logs
